Here are results for 1 molecule from patent EP0688431B1, “METHOD FOR SCREENING CATALYTIC NON-ENZYME POLYPEPTIDES AND PROTEINS” (YEDA RESEARCH AND DEVELOPMENT CO. LTD., priority 1993, dated 1994).

The test has as its target antibody D2.3. In words: Binding of the product to the catalytic antibody. The arrangement: species or system Balb/c mice. As to conditions: binding to antibody D2.3.

Usually Kd stands for a measure of binding affinity in units of concentration. Lower therefore signals a tighter complex. `O=[N+]([O-])c1ccc(CO)cc1` [p-nitrobenzyl alcohol] gave a Kd of 52 µM.
